Results taken from US7977349B2, “Substituted quinolones III” (Aicuris GmbH & Co. KG, priority 2006, dated 2011).
Where a name gives a salt, the structure may show the parent alone.

How the values were obtained:
[1] = system: NHDF (human prepuce fibroblasts); test: Cytostatic effects on NHDF cells in the anti-HCMV cytopathogenicity test; type: cell-based; details: concentration at which no visible cytostatic effects on NHDF cells are evident vs untreated cell control; 6 days
Protocol: (§1) Anti-HCMV (Anti-Human Cytomegalovirus) Cytopathogenicity Tests The test compounds are employed as 50 millimolar (mM) solutions in dimethyl sulfoxide (DMSO). Ganciclovir®, Foscarnet® and Cidofovir® are used as reference compounds. After the addition of 2 μl of the 50, 5, 0.5 and 0.05 mM DMSO stock solutions respectively to 98 μl portions of cell culture medium in row […] for duplicate determinations, 1:2 dilutions are carried out with 50 μl portions of medium up to row 11 of the 96-well plate. The wells in rows 1 and 12 each contain 50 μl of medium. 150 μl of a suspension of 1×10^4 cells (human prepuce fibroblasts [NHDF]) are then pipetted into each of the wells (row 1=cell control) and, in rows 2-12, a mixture of HCMV-infected and uninfected NHDF cells (M.O.I.=0.001-0.002), i.e. 1-2 infected cells per 1000 uninfected cells. Row 12 (without substance) serves as virus control. The final test concentrations are 250-0.0005 μM. The plates are incubated at 37° C./5% CO2 for 6 days, i.e. until all the cells in the virus controls are infected (100% cytopathogenic effect [CPE]). The wells are then fixed and stained by adding a mixture of formalin and Giemsa's dye (30 minutes), washed with double-distilled water and dried in a drying oven at 50° C. The plates are then assessed visually using an overhead microscope (plaque multiplier from Technomara). The following data can be obtained from the test plates: CC50 (NHDF)=substance concentration in μM at which no visible cytostatic effects on the cells are evident compared with the untreated cell control;

HCMV = test: Anti-HCMV (anti-human cytomegalovirus) cytopathogenicity test; type: cell-based; details: concentration inhibiting the CPE by 50% vs untreated virus control, HCMV-infected NHDF cells, 6 days, visual assessment
Protocol: as §1, with “plates: EC50 (HCMV)=substance” for “plates: CC50 (NHDF)=substance”, “μM” for “μM at”, “which inhibits” for “which no visible cytostatic effects on”, “the CPE (cytopathic effect) by 50%” for “the cells are evident”, “untreated virus” for “untreated cell”

[2] = Cytostatic effects on NHDF cells in the anti-HCMV cytopathogenicity test; type: cell-based, human; details: human, concentration at which no visible cytostatic effects on NHDF cells are evident vs untreated cell control
Protocol: as §1

[3] = Human betaherpesvirus 5, NHDF, 144 h

## COc1c(N2CCC(C(=O)O)CC2)c(F)cc2c(=O)c(C(=O)NCc3ccc(OC(F)(F)F)cc3C)cn(CC(F)(F)F)c12 [Example 75, 1-[6-Fluoro-8-methoxy-3-({[2-methyl-4-(trifluoromethoxy)benzyl]amino}carbonyl)-4-oxo-1-(2,2,2-trifluoroethyl)-1,4-dihydroquinolin-7-yl]piperidine-4-carboxylic acid diethanolamine salt]
[1]
  CC50: 47 µM
HCMV
  EC50: 0.002 µM

## COc1c(N2CCC(C(=O)O)CC2)c(F)cc2c(=O)c(C(=O)NCc3ccc(OC(F)(F)F)cc3C)cn(CC(F)(F)F)c12 [Example 76, 1-[6-Fluoro-8-methoxy-3-({[2-methyl-4-(trifluoromethoxy)benzyl]amino}carbonyl)-4-oxo-1-(2,2,2-trifluoroethyl)-1,4-dihydroquinolin-7-yl]piperidine-4-carboxylic acid choline salt]
[1]
  CC50: 47 µM
HCMV
  EC50: 0.002 µM

## COc1c(N2CCC(C(N)=O)CC2)c(F)cc2c(=O)c(C(=O)NCc3ccc(OC(F)(F)F)cc3C)cn(CC(F)(F)F)c12 [Example 31, 1-[6-Fluoro-8-methoxy-3-({[2-methyl-4-(trifluoromethoxy)benzyl]amino}carbonyl)-4-oxo-1-(2,2,2-trifluoroethyl)-1,4-dihydroquinolin-7-yl]piperidine-4-carboxamide]
[2]
  CC50 at 6 days: 16 µM
HCMV; [3]
  EC50: 0.008 µM

## COc1c(N2CCC(C(=O)O)CC2)c(F)cc2c(=O)c(C(=O)NCc3ccc(Cl)cc3C)cn(CC(F)(F)F)c12 [Example 58]
[2]
  CC50 at 6 days: 47 µM
HCMV; [3]
  EC50: 0.006 µM

## COc1c(N2CCC(C(N)=O)CC2)c(F)cc2c(=O)c(C(=O)NCc3ccc(Cl)cc3C)cn(CC(F)(F)F)c12 [Example 28]
[2]
  CC50 at 6 days: 21 µM
HCMV; [3]
  EC50: 0.014 µM

## COc1ccc(CNC(=O)c2cn(CC(F)(F)F)c3c(OC)c(N4CCC(C(=O)O)CC4)c(F)cc3c2=O)c(Cl)c1 [Example 55]
[2]
  CC50 at 6 days: 16 µM
HCMV; [3]
  EC50: 0.031 µM

## COc1c(N2CCC3(CC2)CNC(=O)C3)c(F)cc2c(=O)c(C(=O)NCc3ccc(OC(F)(F)F)cc3C)cn(CC(F)(F)F)c12 [Example 33, 6-Fluoro-8-methoxy-N-[2-methyl-4-(trifluoromethoxy)benzyl]-4-oxo-7-(3-oxo-2,8-diazaspiro[4.5]dec-8-yl)-1-(2,2,2-trifluoroethyl)-1,4-dihydroquinoline-3-carboxamide]
[2]
  CC50 at 6 days: 19 µM
HCMV; [3]
  EC50: 0.017 µM

## COc1c(N2CCC(C(=O)O)CC2)c(F)cc2c(=O)c(C(=O)NCc3ccc(OC(F)(F)F)cc3C)cn(C3CCC3)c12 [Example 61]
[2]
  CC50 at 6 days: 21 µM
HCMV; [3]
  EC50: 0.007 µM

## CCOC(=O)C1CCN(c2c(F)cc3c(=O)c(C(=O)NCc4ccc(OC(F)(F)F)cc4C)cn(CC(F)(F)F)c3c2OC)CC1 [Example 2, Ethyl 1-[6-fluoro-8-methoxy-3-({[2-methyl-4-(trifluoromethoxy)benzyl]amino}carbonyl)-4-oxo-1-(2,2,2-trifluoroethyl)-1,4-dihydroquinolin-7-yl]piperidine-4-carboxylate]
[2]
  CC50 at 6 days: 47 µM
HCMV; [3]
  EC50: 0.005 µM

## COc1c(N2CCC(C(=O)O)CC2)c(F)cc2c(=O)c(C(=O)NCc3ccc(OC(F)(F)F)cc3C)cn(CC(F)F)c12 [Example 62]
[2]
  CC50 at 6 days: 148 µM
HCMV; [3]
  EC50: 0.001 µM
